{"source": "patent US12702587B2", "about": "“Ophthalmic device” (aVISI Ltd., priority 2020, dated 2026)", "origin": "cited, not measured here", "details": "from chitosan nanoparticles; phosphate buffer saline of pH 7.4; in vitro", "note": "Counter-ions that a name gives are not always drawn.", "data": [{"smiles": "CC(C)(C)NC[C@H](O)COc1nsnc1N1CCOCC1", "note": "[timolol maleate]", "values": [{"measurement": "release of timolol maleate (duration of slow release)", "result": "up to 24 hours"}]}]}
